Measured values published in PubChem BioAssay (NCI).
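Five compound concentrations were applied to cells in 96-well plates for 48 hours; endpoints were derived by simple linear interpolation of the resulting dose-response curve. Here, GI50 denotes the concentration required for 50% inhibition of growth. TGI marks complete inhibition of growth.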

Tests used:
Assay in all cases: DTP human tumour cell line panel, 48 h
K-562 leukemia = system: K-562 leukemia
SN12C renal = system: SN12C renal
ACHN renal = system: ACHN renal
OVCAR-4 ovarian = system: OVCAR-4 ovarian
U251 CNS = system: U251 CNS
SNB-19 CNS = system: SNB-19 CNS
SNB-75 CNS = system: SNB-75 CNS
NCI-H23 lung = system: NCI-H23 lung
MALME-3M melanoma = system: MALME-3M melanoma
DU-145 prostate = system: DU-145 prostate
SF-539 CNS = system: SF-539 CNS
SF-295 CNS = system: SF-295 CNS
EKVX NSCLC = system: EKVX NSCLC
SF-268 CNS = system: SF-268 CNS
MOLT-4 leukemia = system: MOLT-4 leukemia
HT29 colon = system: HT29 colon
CAKI-1 renal = system: CAKI-1 renal
M14 melanoma = system: M14 melanoma
MDA-MB-435 = system: MDA-MB-435
HOP-62 NSCLC = system: HOP-62 NSCLC
OVCAR-5 ovarian = system: OVCAR-5 ovarian
SK-OV-3 ovarian = system: SK-OV-3 ovarian
HS 578T breast = system: HS 578T breast
786-0 renal = system: 786-0 renal
A549 NSCLC = system: A549 NSCLC
PC-3 prostate = system: PC-3 prostate
HOP-92 NSCLC = system: HOP-92 NSCLC
UACC-62 melanoma = system: UACC-62 melanoma
HCC-2998 colon = system: HCC-2998 colon
RXF 393 renal = system: RXF 393 renal
SK-MEL-5 melanoma = system: SK-MEL-5 melanoma
NCI-H460 lung = system: NCI-H460 lung
CCRF-CEM leukemia = system: CCRF-CEM leukemia
SW-620 colon = system: SW-620 colon
OVCAR-3 ovarian = system: OVCAR-3 ovarian
SK-MEL-2 melanoma = system: SK-MEL-2 melanoma
BT-549 breast = system: BT-549 breast
RPMI-8226 leukemia = system: RPMI-8226 leukemia
UO-31 renal = system: UO-31 renal
KM12 colon = system: KM12 colon
HCT-116 colon = system: HCT-116 colon
T-47D breast = system: T-47D breast
HCT-15 colon = system: HCT-15 colon
LOX IMVI melanoma = system: LOX IMVI melanoma
SR leukemia = system: SR leukemia
A498 renal = system: A498 renal
SK-MEL-28 melanoma = system: SK-MEL-28 melanoma
IGROV1 ovarian = system: IGROV1 ovarian
HL-60(TB) leukemia = system: HL-60(TB) leukemia
OVCAR-8 ovarian = system: OVCAR-8 ovarian
MDA-MB-231 breast = system: MDA-MB-231 breast
NCI-H522 lung = system: NCI-H522 lung
NCI/ADR-RES ovarian = system: NCI/ADR-RES ovarian
UACC-257 melanoma = system: UACC-257 melanoma
MCF7 breast = system: MCF7 breast
COLO 205 colon = system: COLO 205 colon
TK-10 renal = system: TK-10 renal
NCI-H226 lung = system: NCI-H226 lung

Question: `Cc1ccc(S(=O)(=O)OCC#CCOS(=O)(=O)c2ccc(C)cc2)cc1` was tested. Which GI50 (K-562 leukemia) did it give?
Answer: 2.29 µM

Question: What about the TGI (K-562 leukemia) of the same molecule?
Answer: 10.3 µM

Question: What about the GI50 (SN12C renal) of the same molecule?
Answer: 3.89 µM

Question: What about the TGI (SN12C renal) of the same molecule?
Answer: 17.3 µM

Question: What about the GI50 (ACHN renal) of the same molecule?
Answer: 2.27 µM

Question: What about the TGI (ACHN renal) of the same molecule?
Answer: 5.94 µM

Question: What about the GI50 (OVCAR-4 ovarian) of the same molecule?
Answer: 4.81 µM

Question: And the TGI (OVCAR-4 ovarian)?
Answer: 13.6 µM

Question: What about the GI50 (U251 CNS) of the same molecule?
Answer: 1.69 µM

Question: What about the TGI (U251 CNS) of the same molecule?
Answer: 3.22 µM

Question: And the GI50 (SNB-19 CNS)?
Answer: 7.11 µM

Question: What about the TGI (SNB-19 CNS) of the same molecule?
Answer: 22.2 µM

Question: What about the GI50 (SNB-75 CNS) of the same molecule?
Answer: 1.76 µM

Question: What about the TGI (SNB-75 CNS) of the same molecule?
Answer: 4.38 µM

Question: What about the GI50 (NCI-H23 lung) of the same molecule?
Answer: 1.99 µM

Question: And the TGI (NCI-H23 lung)?
Answer: 5.04 µM

Question: And the GI50 (MALME-3M melanoma)?
Answer: 1.97 µM

Question: And the TGI (MALME-3M melanoma)?
Answer: 4.1 µM

Question: What about the GI50 (DU-145 prostate) of the same molecule?
Answer: 1.86 µM

Question: And the TGI (DU-145 prostate)?
Answer: 3.76 µM

Question: And the GI50 (SF-539 CNS)?
Answer: 2.5 µM

Question: And the TGI (SF-539 CNS)?
Answer: 7.01 µM

Question: And the GI50 (SF-295 CNS)?
Answer: 1.74 µM

Question: And the TGI (SF-295 CNS)?
Answer: 3.62 µM

Question: And the GI50 (EKVX NSCLC)?
Answer: 2.08 µM

Question: And the TGI (EKVX NSCLC)?
Answer: 4.38 µM

Question: What about the GI50 (SF-268 CNS) of the same molecule?
Answer: 1.79 µM

Question: And the TGI (SF-268 CNS)?
Answer: 3.87 µM

Question: What about the GI50 (MOLT-4 leukemia) of the same molecule?
Answer: 2.39 µM

Question: What about the TGI (MOLT-4 leukemia) of the same molecule?
Answer: 7.81 µM

Question: What about the GI50 (HT29 colon) of the same molecule?
Answer: 1.87 µM

Question: What about the TGI (HT29 colon) of the same molecule?
Answer: 4.17 µM

Question: What about the GI50 (CAKI-1 renal) of the same molecule?
Answer: 0.512 µM

Question: What about the TGI (CAKI-1 renal) of the same molecule?
Answer: 1.5 µM

Question: And the GI50 (M14 melanoma)?
Answer: 2.59 µM

Question: And the TGI (M14 melanoma)?
Answer: 7.65 µM

Question: What about the GI50 (MDA-MB-435) of the same molecule?
Answer: 1.9 µM

Question: What about the TGI (MDA-MB-435) of the same molecule?
Answer: 4.3 µM

Question: And the GI50 (HOP-62 NSCLC)?
Answer: 2.35 µM

Question: And the TGI (HOP-62 NSCLC)?
Answer: 5.69 µM

Question: And the GI50 (OVCAR-5 ovarian)?
Answer: 4.99 µM

Question: What about the TGI (OVCAR-5 ovarian) of the same molecule?
Answer: 14.5 µM

Question: And the GI50 (SK-OV-3 ovarian)?
Answer: 6.51 µM

Question: What about the TGI (SK-OV-3 ovarian) of the same molecule?
Answer: 14.9 µM

Question: And the GI50 (HS 578T breast)?
Answer: 2.75 µM

Question: What about the TGI (HS 578T breast) of the same molecule?
Answer: 14.2 µM

Question: And the GI50 (786-0 renal)?
Answer: 2.57 µM

Question: What about the TGI (786-0 renal) of the same molecule?
Answer: 7.15 µM

Question: What about the GI50 (A549 NSCLC) of the same molecule?
Answer: 4.85 µM

Question: And the TGI (A549 NSCLC)?
Answer: 19.8 µM

Question: And the GI50 (PC-3 prostate)?
Answer: 1.79 µM

Question: And the TGI (PC-3 prostate)?
Answer: 3.6 µM

Question: And the GI50 (HOP-92 NSCLC)?
Answer: 1.97 µM

Question: And the TGI (HOP-92 NSCLC)?
Answer: 4.17 µM

Question: What about the GI50 (UACC-62 melanoma) of the same molecule?
Answer: 3.96 µM

Question: And the TGI (UACC-62 melanoma)?
Answer: 12.6 µM

Question: And the GI50 (HCC-2998 colon)?
Answer: 2.85 µM

Question: What about the TGI (HCC-2998 colon) of the same molecule?
Answer: 8.73 µM

Question: And the GI50 (RXF 393 renal)?
Answer: 2.22 µM

Question: What about the TGI (RXF 393 renal) of the same molecule?
Answer: 5.21 µM

Question: What about the GI50 (SK-MEL-5 melanoma) of the same molecule?
Answer: 3.69 µM

Question: And the TGI (SK-MEL-5 melanoma)?
Answer: 9.96 µM

Question: And the GI50 (NCI-H460 lung)?
Answer: 1.8 µM

Question: And the TGI (NCI-H460 lung)?
Answer: 4.07 µM

Question: And the GI50 (CCRF-CEM leukemia)?
Answer: 1.96 µM

Question: And the TGI (CCRF-CEM leukemia)?
Answer: 5.79 µM

Question: What about the GI50 (SW-620 colon) of the same molecule?
Answer: 1.8 µM

Question: What about the TGI (SW-620 colon) of the same molecule?
Answer: 3.96 µM

Question: And the GI50 (OVCAR-3 ovarian)?
Answer: 1.85 µM

Question: And the TGI (OVCAR-3 ovarian)?
Answer: 3.36 µM

Question: And the GI50 (SK-MEL-2 melanoma)?
Answer: 3.07 µM

Question: And the TGI (SK-MEL-2 melanoma)?
Answer: 9.66 µM

Question: And the GI50 (BT-549 breast)?
Answer: 4.57 µM

Question: And the TGI (BT-549 breast)?
Answer: 9.68 µM

Question: What about the GI50 (RPMI-8226 leukemia) of the same molecule?
Answer: 1.85 µM

Question: And the TGI (RPMI-8226 leukemia)?
Answer: 4.42 µM

Question: What about the GI50 (UO-31 renal) of the same molecule?
Answer: 0.228 µM

Question: And the TGI (UO-31 renal)?
Answer: 0.538 µM

Question: What about the GI50 (KM12 colon) of the same molecule?
Answer: 2.08 µM

Question: And the TGI (KM12 colon)?
Answer: 4.6 µM

Question: What about the GI50 (HCT-116 colon) of the same molecule?
Answer: 2.08 µM

Question: What about the TGI (HCT-116 colon) of the same molecule?
Answer: 5.47 µM

Question: What about the GI50 (T-47D breast) of the same molecule?
Answer: 1.94 µM

Question: What about the TGI (T-47D breast) of the same molecule?
Answer: 4.26 µM

Question: And the GI50 (HCT-15 colon)?
Answer: 3.2 µM

Question: And the TGI (HCT-15 colon)?
Answer: 14.9 µM

Question: And the GI50 (LOX IMVI melanoma)?
Answer: 1.15 µM

Question: And the TGI (LOX IMVI melanoma)?
Answer: 2.56 µM

Question: What about the GI50 (SR leukemia) of the same molecule?
Answer: 1.27 µM

Question: What about the TGI (SR leukemia) of the same molecule?
Answer: 3.89 µM

Question: And the GI50 (A498 renal)?
Answer: 4.34 µM

Question: And the TGI (A498 renal)?
Answer: 11.7 µM

Question: And the GI50 (SK-MEL-28 melanoma)?
Answer: 2.69 µM

Question: What about the TGI (SK-MEL-28 melanoma) of the same molecule?
Answer: 7.8 µM

Question: And the GI50 (IGROV1 ovarian)?
Answer: 0.992 µM

Question: What about the TGI (IGROV1 ovarian) of the same molecule?
Answer: 2.86 µM

Question: And the GI50 (HL-60(TB) leukemia)?
Answer: 1.51 µM

Question: And the TGI (HL-60(TB) leukemia)?
Answer: 3.55 µM

Question: And the GI50 (OVCAR-8 ovarian)?
Answer: 2.45 µM

Question: And the TGI (OVCAR-8 ovarian)?
Answer: > 21.5 µM

Question: And the GI50 (MDA-MB-231 breast)?
Answer: 3.39 µM

Question: What about the TGI (MDA-MB-231 breast) of the same molecule?
Answer: 11 µM

Question: And the GI50 (NCI-H522 lung)?
Answer: 1.19 µM

Question: And the TGI (NCI-H522 lung)?
Answer: 3.12 µM

Question: And the GI50 (NCI/ADR-RES ovarian)?
Answer: 2.12 µM

Question: What about the TGI (NCI/ADR-RES ovarian) of the same molecule?
Answer: 5.93 µM

Question: And the GI50 (UACC-257 melanoma)?
Answer: 1.92 µM

Question: And the TGI (UACC-257 melanoma)?
Answer: 4.07 µM

Question: And the GI50 (MCF7 breast)?
Answer: 3.21 µM

Question: And the TGI (MCF7 breast)?
Answer: 16.7 µM

Question: What about the GI50 (COLO 205 colon) of the same molecule?
Answer: 2.42 µM

Question: And the TGI (COLO 205 colon)?
Answer: 5.72 µM

Question: And the GI50 (TK-10 renal)?
Answer: 2.37 µM

Question: And the TGI (TK-10 renal)?
Answer: 6.27 µM

Question: And the GI50 (NCI-H226 lung)?
Answer: 5.83 µM

Question: And the TGI (NCI-H226 lung)?
Answer: 12.9 µM
